PubChem BioAssay (NCI)
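Method: 48-hour compound exposure of cells in 96-well plates, five concentrations, linear interpolation of endpoints. GI50 is the concentration that inhibits growth by half. At the TGI there is no net growth.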

Assays:
Test in all cases: NCI anticancer screen, dose series, 48 h
786-0 renal = tested on: 786-0 renal
A498 renal = tested on: A498 renal
A549 NSCLC = tested on: A549 NSCLC
ACHN renal = tested on: ACHN renal
BT-549 breast = tested on: BT-549 breast
CAKI-1 renal = tested on: CAKI-1 renal
CCRF-CEM leukemia = tested on: CCRF-CEM leukemia
COLO 205 colon = tested on: COLO 205 colon
DU-145 prostate = tested on: DU-145 prostate
EKVX NSCLC = tested on: EKVX NSCLC
HCC-2998 colon = tested on: HCC-2998 colon
HCT-116 colon = tested on: HCT-116 colon
HCT-15 colon = tested on: HCT-15 colon
HL-60(TB) leukemia = tested on: HL-60(TB) leukemia
HOP-62 NSCLC = tested on: HOP-62 NSCLC
HOP-92 NSCLC = tested on: HOP-92 NSCLC
HS 578T breast = tested on: HS 578T breast
HT29 colon = tested on: HT29 colon
IGROV1 ovarian = tested on: IGROV1 ovarian
K-562 leukemia = tested on: K-562 leukemia
KM12 colon = tested on: KM12 colon
LOX IMVI melanoma = tested on: LOX IMVI melanoma
M14 melanoma = tested on: M14 melanoma
MALME-3M melanoma = tested on: MALME-3M melanoma
MCF7 breast = tested on: MCF7 breast
MDA-MB-231 breast = tested on: MDA-MB-231 breast
MDA-MB-435 = tested on: MDA-MB-435
MOLT-4 leukemia = tested on: MOLT-4 leukemia
NCI-H226 lung = tested on: NCI-H226 lung
NCI-H23 lung = tested on: NCI-H23 lung
NCI-H460 lung = tested on: NCI-H460 lung
NCI-H522 lung = tested on: NCI-H522 lung
NCI/ADR-RES ovarian = tested on: NCI/ADR-RES ovarian
OVCAR-3 ovarian = tested on: OVCAR-3 ovarian
OVCAR-4 ovarian = tested on: OVCAR-4 ovarian
OVCAR-5 ovarian = tested on: OVCAR-5 ovarian
OVCAR-8 ovarian = tested on: OVCAR-8 ovarian
PC-3 prostate = tested on: PC-3 prostate
RPMI-8226 leukemia = tested on: RPMI-8226 leukemia
RXF 393 renal = tested on: RXF 393 renal
SF-268 CNS = tested on: SF-268 CNS
SF-295 CNS = tested on: SF-295 CNS
SF-539 CNS = tested on: SF-539 CNS
SK-MEL-2 melanoma = tested on: SK-MEL-2 melanoma
SK-MEL-28 melanoma = tested on: SK-MEL-28 melanoma
SK-MEL-5 melanoma = tested on: SK-MEL-5 melanoma
SK-OV-3 ovarian = tested on: SK-OV-3 ovarian
SN12C renal = tested on: SN12C renal
SNB-19 CNS = tested on: SNB-19 CNS
SNB-75 CNS = tested on: SNB-75 CNS
SR leukemia = tested on: SR leukemia
SW-620 colon = tested on: SW-620 colon
T-47D breast = tested on: T-47D breast
TK-10 renal = tested on: TK-10 renal
U251 CNS = tested on: U251 CNS
UACC-257 melanoma = tested on: UACC-257 melanoma
UACC-62 melanoma = tested on: UACC-62 melanoma
UO-31 renal = tested on: UO-31 renal

## O=C(/C=C/c1ccc(Cl)cc1)c1ccc(Nc2nc(Nc3ccc(F)cc3)nc(Nc3ccc(F)cc3)n2)cc1
786-0 renal
  GI50: 23.1 µM
  TGI: 56.3 µM
A498 renal
  GI50: 34.6 µM
  TGI: 98.5 µM
A549 NSCLC
  GI50: 49.9 µM
  TGI: > 100 µM
ACHN renal
  GI50: 72 µM
  TGI: > 100 µM
BT-549 breast
  GI50: 19 µM
  TGI: 36.9 µM
CAKI-1 renal
  GI50: 80.4 µM
  TGI: > 100 µM
CCRF-CEM leukemia
  GI50: 31.9 µM
  TGI: > 100 µM
COLO 205 colon
  GI50: 16.7 µM
  TGI: 45.4 µM
DU-145 prostate
  GI50: > 100 µM
  TGI: > 100 µM
EKVX NSCLC
  GI50: 95.7 µM
  TGI: > 100 µM
HCC-2998 colon
  GI50: 17.7 µM
  TGI: 41.2 µM
HCT-116 colon
  GI50: 12.2 µM
  TGI: 25.5 µM
HCT-15 colon
  GI50: 53.7 µM
  TGI: > 100 µM
HL-60(TB) leukemia
  GI50: 39 µM
  TGI: > 100 µM
HOP-62 NSCLC
  GI50: > 100 µM
  TGI: > 100 µM
HOP-92 NSCLC
  GI50: 26.6 µM
  TGI: > 100 µM
HS 578T breast
  GI50: 52.3 µM
  TGI: > 100 µM
HT29 colon
  GI50: 35.1 µM
  TGI: > 100 µM
IGROV1 ovarian
  GI50: 13.7 µM
  TGI: 30.9 µM
K-562 leukemia
  GI50: 53.1 µM
  TGI: > 100 µM
KM12 colon
  GI50: 25.7 µM
  TGI: > 100 µM
LOX IMVI melanoma
  GI50: 27.4 µM
  TGI: 70.2 µM
M14 melanoma
  GI50: 20.7 µM
  TGI: 42 µM
MALME-3M melanoma
  GI50: > 100 µM
  TGI: > 100 µM
MCF7 breast
  GI50: 9.45 µM
  TGI: > 100 µM
MDA-MB-231 breast
  GI50: > 100 µM
  TGI: > 100 µM
MDA-MB-435
  GI50: 23 µM
  TGI: 50 µM
MOLT-4 leukemia
  GI50: 24.5 µM
  TGI: 98.7 µM
NCI-H226 lung
  GI50: 24.5 µM
  TGI: 53.8 µM
NCI-H23 lung
  GI50: 41 µM
  TGI: > 100 µM
NCI-H460 lung
  GI50: 38.9 µM
  TGI: > 100 µM
NCI-H522 lung
  GI50: 35.6 µM
  TGI: > 100 µM
NCI/ADR-RES ovarian
  GI50: 43.9 µM
  TGI: > 100 µM
OVCAR-3 ovarian
  GI50: 32.2 µM
  TGI: 89.8 µM
OVCAR-4 ovarian
  GI50: 65.7 µM
  TGI: > 100 µM
OVCAR-5 ovarian
  GI50: > 100 µM
  TGI: > 100 µM
OVCAR-8 ovarian
  GI50: 74.4 µM
  TGI: > 100 µM
PC-3 prostate
  GI50: 41.1 µM
  TGI: > 100 µM
RPMI-8226 leukemia
  GI50: 4.99 µM
  TGI: 26.3 µM
RXF 393 renal
  GI50: 21.2 µM
  TGI: 46.1 µM
SF-268 CNS
  GI50: 56.1 µM
  TGI: > 100 µM
SF-295 CNS
  GI50: 22.6 µM
  TGI: 58.5 µM
SF-539 CNS
  GI50: 24 µM
  TGI: 51.9 µM
SK-MEL-2 melanoma
  GI50: 40.8 µM
  TGI: > 100 µM
SK-MEL-28 melanoma
  GI50: 24.6 µM
  TGI: 61.7 µM
SK-MEL-5 melanoma
  GI50: 46.9 µM
  TGI: > 100 µM
SK-OV-3 ovarian
  GI50: 43.7 µM
  TGI: > 100 µM
SN12C renal
  GI50: > 100 µM
  TGI: > 100 µM
SNB-19 CNS
  GI50: 94.1 µM
  TGI: > 100 µM
SNB-75 CNS
  GI50: 67.8 µM
  TGI: > 100 µM
SR leukemia
  GI50: 22.3 µM
  TGI: 74.3 µM
SW-620 colon
  GI50: 29.2 µM
  TGI: 76.5 µM
T-47D breast
  GI50: 19.2 µM
  TGI: > 100 µM
TK-10 renal
  GI50: > 100 µM
  TGI: > 100 µM
U251 CNS
  GI50: 19.8 µM
  TGI: 41.6 µM
UACC-257 melanoma
  GI50: > 100 µM
  TGI: > 100 µM
UACC-62 melanoma
  GI50: > 100 µM
  TGI: > 100 µM
UO-31 renal
  GI50: 19.4 µM
  TGI: > 100 µM
